What is called solubility is how much of the substance goes into solution per volume.

Series [1] in a line: Dynamic moisture sorption gravimetry (DMSG) of salts of Compound I. Type of series: physicochemical. The protocol:
Dynamic Moisture Sorption Gravimetry (DMSG).
DMSG isotherm was collected on a temperature controlled atmospheric microbalance. Approximately 10 mg samples were placed in the sample pan of the balance. The humidity was sequentially varied from room relative humidity (RH) to 0% RH and was then increased to 90% RH followed by a decrease of RH to 0% again in 3% RH steps. The mass was then measured every two minutes. The RH was stepped to the next target value when change of the sample mass was less than 0.5 μg in 10 min. The Visual Basic program dmsgscn2.exe was used to control the data collection and export the information to an Excel spreadsheet.

The nature of series [2]: Estimation of solubility in various solvents by step-wise solvent addition. Type of series: physicochemical. The conditions noted are these: 23 °C, organic solvent or mixture, thermodynamic from solid, 23° C., read-out: Estimated solubility. The protocol:
Samples of 1-2 mg of Compound I phosphate (lot 35282-CS-51) were transferred to 10 mL glass vials (tared) and were weighed (accurate to 0.1 mg). Solvents were added to the vials (one solvent to each vial) in a step-wise fashion, with 0.5 mL of solvent added at each step. Solvents used were buffer (pH=2), buffer (pH=5), water, methanol, tetrahydrofuran (THF), acetonitrile, and acetone. After each addition, the vial was capped and shaken. The dissolution of solid was visually observed. If no obvious dissolution was observed, more solvent was added immediately. If dissolution was apparent, the vial was left on the bench for at least 30 minutes before the next addition of solvent. This step was repeated until no crystals were visible against a black and a white background. The solubility was then bracketed by dividing the weight of the compound by the final volume and the volume before the last addition. If a solid remained after the addition of 10 mL of solvent, the solubility was expressed as less than the weight divided by the final volume. If the solid was completely dissolved after the first addition of solvent, the solubility was expressed as greater than the weight divided by the solvent volume. All experiments were conducted at room temperature.

For another series, the system named is KIT. As to conditions: in vitro, cited from earlier work.
On the set-up of series [3]: species or system rodent. As to conditions: in vivo. How it is done: Based on preclinical work in rodent models, the therapeutic range of Compound I for target inhibition was considered to be 50-100 ng/ml for 12 h of a 24-h dosing period. […] In one animal, the plasma concentration of Compound I phosphate was outside the range of the other samples (0.3 ng/ml).
Another series deals with canine MCTs. The conditions noted are these: dog, in vivo; cited from earlier work.
Series [4] is described as follows: Solubility of Compound I in pH 6 phosphate buffer. Type of series: physicochemical. The conditions noted are these: aqueous buffer; pH 6 phosphate buffer at 25° C. The protocol: Compound I readily crystallizes. Its solubility is about 10 μg/mL in pH 6 phosphate buffer at 25° C. When the compound was synthesized, very fine particles precipitated out of solution during the last step of synthesis. Subsequent isolation of these fine particles by filtration was slow, and a hard cake resulted after filtration. There is a need for a salt of Compound I which has physical stability and desirable physical properties.

The nature of series [5]: Relative physical stability of Compound I phosphate polymorphs standing in solvent. The conditions noted are these: among non-solvated polymorphs, in contact with solvent. Type of series: physicochemical. How it is done: Such concentrated solutions were prepared by dissolving Compound I free base in about 1 M phosphoric acid. For example, about 70 mg of Compound I free base could be dissolved in 1 mL of 1 M phosphoric acid. However, the amount of Compound I free base and phosphoric acid used depended on the desired concentration and batch size of the solution. In the example in which the precipitate was vacuum filtered immediately after precipitation, about 1 mL of the desired solution was then dripped into about 10 mL of ten anti-solvents to precipitate the salt crystals out. These solvents were water plus acetonitrile (ANC), ethanol, methanol, acetone, acetonitrile, THF, ethyl acetate, hexane, methylene chloride (CH2Cl2), and isopropyl alcohol (IPA). In the example in which the precipitate was vacuum filtered after standing overnight or for three days, the additional solvents of methyl ethyl ketone (MEK) and dioxane were used. Some organic solvents, e.g., ethyl acetate, hexane, CH2C12, are not miscible with water and two layers of solvents were observed. […] In those cases, about 1 mL of methanol was added as a bridging solvent, to increase the miscibility between the two layers. Methanol appeared to work well to increase the miscibility because colorless organic layer became yellow as soon as methanol was added. […] The powder was then analyzed. […]

Structures are written as SMILES. ≈ marks a conversion by molar mass, not a printed value.

Turning to `Cc1[nH]c(/C=C2\C(=O)Nc3ccc(F)cc32)c(C)c1C(=O)NCCN1CCCC1.O=C(O)CC(O)(CC(=O)O)C(=O)O` [Compound I citrate], the “% water at 80% RH” value in series [1] is approximately 3.8%. The “water at 80 percent humidity” value in series [1] (80 percent relative humidity) is “about 3.8%”.
For `Cc1[nH]c(/C=C2\C(=O)Nc3ccc(F)cc32)c(C)c1C(=O)NCCN1CCCC1` [Compound I free base (polymorph Form A), 5-[5-fluoro-2-oxo-1,2-dihydro-indol-(3Z)-ylidenemethyl]-2,4-dimethyl-1H-pyrrole-3-carboxylic acid (2-pyrrolidin-1-yl-ethyl)-amide], the solubility in series [2] (acetone, Acetone) is less than 160 µg/mL; in series [2] (acetonitrile, Acetonitrile), less than 80 µg/mL; in series [2] (methanol, methanol) it was 210 to 310 µg/mL (≈ 530 to 782 µM); in series [2] (tetrahydrofuran (THF), THF), 320 to 400 µg/mL (≈ 807 to 1010 µM).
Regarding `Cc1[nH]c(/C=C2\C(=O)Nc3ccc(F)cc32)c(C)c1C(=O)NCCN1CCCC1` [Compound I, 5-[5-fluoro-2-oxo-1,2-dihydro-indol-(3Z)-ylidenemethyl]-2,4-dimethyl-1H-pyrrole-3-carboxylic acid (2-pyrrolidin-1-yl-ethyl)-amide], the “potency of blocking phosphorylation of wild-type vs ITD mutant KIT” value in the series on KIT (cellular assays) was “comparable potency”. The “effect on malignant mast cell lines expressing various forms of mutant KIT” value in the series on KIT is “inhibit KIT phosphorylation, arrest cell proliferation, and induce cell cycle arrest and apoptosis”. The “% water at 80% RH” value in series [1] is recorded as approximately 1%. Moreover, the “therapeutic range for target inhibition (plasma)” value in series [3] was 50 to 100 ng/mL. In addition, in the series on canine MCTs, the “canine MCTs with durable objective responses (partial and complete responses)” value was 11 of 22 canine MCTs. Moreover, the solubility in series [4] is approximately 10 µg/mL (≈ 25.2 µM).
With `Cc1[nH]c(/C=C2\C(=O)Nc3ccc(F)cc32)c(C)c1C(=O)NCCN1CCCC1` [Form I], the “relative stability of the solid phase” value in series [5] was “most stable solid phase”.

These data come from patent US8987320B2, “Solid salt forms of a pyrrole substituted 2-indolinone” (Zoetis LLC, priority 2005, dated 2015).
